Where two headings read alike, the source gives them in different places.
How the values were obtained:
[1] = tested on: wild-type CHO cells; test: MTT cytotoxicity assay in wild-type CHO cells; format: cell-based, Chinese hamster; conditions: wild-type CHO, 2-3 days
Procedure: (§1) Differential susceptibility to the respiratory complex I inhibitors MPP^+ and rotenone was shown by measuring toxicity by measuring general cell dehydrogenase activity with reduction of a tetrazolium dye (MTT) in a spectrophotometric plate assay as described by Hansen et al., J. Immunol. Methods 119:203-210 (1989). Briefly, a stock solution of MTT (3,(4,5-dimethylthiazol-2-yl)2,5-diphenyltetrazolium bromide) was dissolved at a concentration of 5 mg/ml in sterile phosphate buffered saline at room temperature. To each well was added 25 μl of the stock solution. After two hours of incubation at 37° C., 100 μl of extraction buffer (20% w/v of SDS in a solution of 50% each dimethylformamide and demineralized water with the pH adjusted to 4.7 with acetic acid and HCl). After an overnight incubation at 37° C., the optical densities at 570 nm were measured using a multiscanner, employing the extraction buffer as the blank. This assay was carried out in triplicate on 96-well plates (NUNC, Denmark). MPP^+ and rotenone at the concentrations indicated in FIG. 6a and 6b, respectively, was added to wild-type and MPP^+ -resistant CHO cells at approximately 50% confluence, and toxicity was assayed after 2-3 days by measuring general cell dehydrogenase activity with the reduction of the tetrazolium dye MTT (3,(4,5-dimethylthiazol-2-yl)2,5-diphenyl-tetrazolium bromide). After addition of the dye at a final concentration of 1 mg/ml, the cells were incubated for two hours at 37° C. and the formazan product was solubilized in 10% sodium dodecyl sulfate (SDS). The plates were maintained at 37° C. for an additional twenty hours and the optical density was determined in an ELISA plate reader at a test wavelength of 570 nm, a reference wavelength of 630 nm and a calibration setting of 1.99. All determinations were performed in triplicate and expressed as the mean, with the error bars representing standard deviation (FIG. 6a and 6b).

[2] = tested on: PC12 cells; conditions: cited from earlier work
[3] = tested on: chromaffin cells; conditions: [3H]-MPP+ accumulated; cited from earlier work
[4] = tested on: transfected CHO cells; test: Survival/selection/growth of transfected CHO cells in MPP+; format: cell-based, Chinese hamster
Procedure: Using the above methods, the PC12 cDNA library constructed in the plasmid expression vector CDM8 was transfected into CHO cells. Using the selectable marker RSV- neo (Walker, Weizmann Institute, Israel), […] independent stable transformants were obtained after selection in the neomycin analogue G418 at 400 μg/ml effective dose. These cells were then selected at 40% confluence in 1 mM MPP^+. […] However, at four weeks, a colony of cells without refractile inclusions appeared and rapidly covered the plate. The apparently normal growth of these cells in the presence of 1 mM MPP^+ stands in marked contrast to all of the resistant clones obtained without transfection, which grew very slowly if at all. […] However, at 1 mM MPP^+, the resistant cells did show some toxicity, particularly when the assay was performed at higher cell density.
To identify the cDNA sequences responsible for conferring resistance to MPP^+, integrated plasmids were rescued from the primary CHO transformant obtained as described above in Example 1. […] The primary MPP^+ -resistant CHO transformant was amplified in culture and following cell lysis in 5M guanidinium isothiocyanate, the high molecular weight DNA prepared by repeated precipitation in isopropanol. After digestion with Not I, which cleaves the CDM8 vector once downstream of the cDNA insertion site as well as at rare eight-nucleotide recognition sites elsewhere in the genome, the DNA was religated and transformed into E. coli by electroporation as described by Stern-Bach et al., J. Biol. Chem. 265:3961-3966 (1990). Four pools of the derived plasmids containing approximately 50 colonies each were transfected into CHO cells and after two days were selected in 1 mM MPP^+. Four weeks later, one pool gave rise to several MPP^+ -resistant colonies, two pools gave rise to 1-2 colonies and the fourth pool and CDM8 vector gave rise to no healthy, resistant colonies. Restriction enzyme analysis of the plasmids in the pool conferring the highest frequency of resistance to MPP^+ indicated three independent clones of 1.0, 1.3 and 2.5 kb. […]

[5] = tested on: MPP^+ -resistant CHO cells; test: MTT cytotoxicity assay in MPP+-resistant transfected CHO cells; format: cell-based, Chinese hamster
Procedure: as §1
To determine whether an alteration in the process of respiration was responsible for the resistance to MPP^+, the effects of other known respiratory inhibitors were examined. […] Thus, if the resistance were due to a change in the site of action, the transfected cells should also show resistance to rotenone. […] However, rotenone is considered to have its selected effect on respiration at relatively low doses, and an additional, less specific effect at higher doses.
Therefore, the toxicity of MPP^+ to transfected cells in the presence of 1 μM reserpine was examined.

[6] = tested on: CHO cells; test: Inhibition of protein synthesis in CHO cells by MPP+
[7] = tested on: Untransfected CHO cells; test: Survival/selection of untransfected CHO cells in MPP+; format: cell-based, Chinese hamster; conditions: 500 μM
Procedure: To determine whether the transfer of DNA sequences from PC12 cells into CHO cells could be used to generate stable CHO transformants resistant to MPP^+, it was first necessary to determine the spontaneous rate of resistance under different culture conditions. […] Selection of one million CHO cells at intermediate density (25-50% confluence) in 500 μM MPP^+ gave rise to 5-10 small colonies after one month. However, these cells contained particulate inclusions characteristic of MPP^+ toxicity, and grew very slowly even when maintained at low density. At moderate density, the cells degenerated further and detached from the plate.

[8] = biological target: T1, chromaffin granule amine transport protein (Rattus norvegicus, UniProt Q01818); test: Quantitative [3H]dopamine transport assay with mpp^res CHO cell homogenate; format: biochemical; conditions: for rank order for affinity of substrates: quantitative assay
T1 sequence (Q01818 1-521): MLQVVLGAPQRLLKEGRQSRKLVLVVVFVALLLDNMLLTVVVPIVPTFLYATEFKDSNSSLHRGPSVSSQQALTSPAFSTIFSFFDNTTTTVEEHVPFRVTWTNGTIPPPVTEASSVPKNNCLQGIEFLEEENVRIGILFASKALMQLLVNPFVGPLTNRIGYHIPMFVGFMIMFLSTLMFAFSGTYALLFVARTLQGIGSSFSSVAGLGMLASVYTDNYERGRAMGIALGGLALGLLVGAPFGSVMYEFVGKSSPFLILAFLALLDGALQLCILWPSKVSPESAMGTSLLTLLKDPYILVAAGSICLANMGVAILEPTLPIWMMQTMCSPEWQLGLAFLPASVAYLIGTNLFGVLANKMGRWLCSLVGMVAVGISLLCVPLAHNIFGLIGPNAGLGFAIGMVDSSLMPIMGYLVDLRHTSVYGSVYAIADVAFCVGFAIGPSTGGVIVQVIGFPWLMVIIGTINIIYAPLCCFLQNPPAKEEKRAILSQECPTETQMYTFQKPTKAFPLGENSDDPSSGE
Procedure: The quantity of label bound is measured after filtration of the assay mixture. Preferably, the label is a radioactive label. […] This can be done by standard graphic kinetic techniques such as the Lineweaver-Burke plot.
Incubation was performed at 29° C. for the time period indicated (from 2 minutes to 30 minutes). The assay was terminated by dilution in cold assay buffer followed by filtration through 0.2 μm Supor™ 200 membranes (Gelman, Ann Arbor, Mich.) and the bound radioactivity was measured. The cells used for the quantitative assay are selected in MPP^+ or screened with antibody to ensure that they express the transporter at high levels, as it is difficult to measure activity in this assay at low levels of transporter expression.
The quantitative transport test was performed as described above on wild-type CHO cells and mpp^res CHO cells.

[9] = biological target: T1, chromaffin granule amine transport protein; test: cell-based; format: cell-based; conditions: for Dopamine Fluorescence (mpp^res CHO): untreated control ++++, 12 hour dopamine loading; for inhibition of vesicular amine uptake/transport (fluorescence assay, in words): concentrations of Table 1
Procedure: Uptake and cellular compartmentalization of loaded dopamine were performed by growing cells on poly-lysine-coated glass coverslips. […] The cells were then washed three times in 0.1M sodium phosphate, pH 7.4, and incubated at 4° C. in 2% glyoxylic acid/0.5 mg% MgCl2, pH 4.9-5.0 for three minutes as described by de la Torre, J. Neurosci. Meth. 3:1-5 (1980). Briefly, excess solution is wiped off the bottom and edges of the slide using absorbent paper, taking care not to touch the section. The coverslips were then drained thoroughly, dried in air at 45° C. heated to 80° C. for five minutes, inverted over mineral oil on glass slides and examined under fluorescence using the appropriate filters as described by Knigge et al., Brain Res. 120:393-405 (1977). Briefly, the preparations were infiltrated with warm immersion oil and examined in a Leitz MPV2 microspectrofluorometer equipped with Schoffel excitation and emission grating monochromators, photomultipliers, and ratio computing circuitry. Cells were scanned with either monochromatic light (370 nm) or narrow band excitation (S405, BG3) light for the purpose of identifying fluorescence within cells. Ploem illumination was used in combination with a X 63 or X 100 oil immersion objective.
Dopamine-loaded fluorescence was carried out as described in Example 1. […] Glyoxylic-acid-induced fluorescence was used to determine the intracellular distribution as described above in Example 1. The procedures were the same as described in Example 1 however a pure cDNA clone encoding the vesicle membrane transport protein, selected in the presence of MPP^+, obtained as described herein, was used rather than the primary transformant. […]
The effects of various pharmacologic agents were tested to determine whether the properties of the protein encoded by the mpp^res cDNA corresponded with those expected for the chromaffin granule amine transport protein. […] The cells were pre-incubated in Krebs-Ringer buffer containing 1 μM pargyline and the dose of the drug indicated for 15 minutes. 25 nM [^3 H]-dopamine was then added in the same buffer and after incubation at 37° C. for one hour, the cells were washed in cold Krebs-Ringer buffer, lysed and counted in Ecolite (ICN) as described by Greene and Rein, Brain Res. 129:247-263 (1978). Values were determined from three separate wells and the mean was expressed as percent of control uptake±standard deviation. […] The dose required to inhibit maximal uptake by 50%, Ki, was estimated from the fluorescence data using a range of concentrations for each agent.

[10] = tested on: PC12 cells; test: cells; conditions: Rattus norvegicus, PC-12, 1 h, read-out: [^3 H]-Dopamine Uptake (PC12)
Procedure: The effects of various pharmacologic agents were tested to determine whether the properties of the protein encoded by the mpp^res cDNA corresponded with those expected for the chromaffin granule amine transport protein. […] The cells were pre-incubated in Krebs-Ringer buffer containing 1 μM pargyline and the dose of the drug indicated for 15 minutes. […] Values were determined from three separate wells and the mean was expressed as percent of control uptake±standard deviation.

C[n+]1ccc(-c2ccccc2)cc1 [MPP^+, 1-methyl-4-phenylpyridinium]
MPP+ toxicity (MTT assay) [1]: steep dose-response curve
PC12 cell death ([2]; 100 μM): death by two weeks
PC12 cell death ([2]; 1 mM): cell death by four days
toxicity to chromaffin cells [3]: relatively little toxicity
toxicity in library-transfected CHO cells ([4]; 1 mM, 40% confluence): Virtually all of the cells developed toxicity within one week
growth of the resistant clone in MPP+ ([4]; vs untreated wild-type cells, particularly at higher densities): slightly more slowly
MPP+ toxicity (MTT assay) ([5]; resistant cells, 1 mM, particularly at higher cell density): some toxicity
MPP+ toxicity (MTT assay) ([5]; resistant clone, 2-3 days): relative lack of toxicity
sensitivity of CHO cells to MPP+ relative to PC12 cells [6]: greater sensitivity to MPP^+ than PC12 cells
inhibition of protein synthesis ([6]; over 100 μM, 2-3 days, high density CHO cells): virtually complete inhibition of protein synthesis
number of resistant colonies from one million CHO cells ([7]; 25-50% confluence, after one month): 5-10 small colonies
cell survival in MPP+ ([7]; high density (more than 75% confluence)): all of the cells died within 24 hours
cell survival in MPP+ ([7]; low density (less than 25% confluence)): the cells stopped growing, gradually acquiring refractile cytoplasmic inclusions, swelling and eventually detaching from the plate after several weeks
acquired resistance of untransfected CHO cells ([7]; selection for over two months): little resistance

N#CC(C#N)=NNc1cccc(Cl)c1 [carbonyl cyanide m-chlorophenylhydrazone]
dopamine incorporation by mpp^res cells ([8]; 5 μM): blocked

CCN(CC)CCCC(C)Nc1ccnc2cc(Cl)ccc12 (stereo not drawn) [chloroquine]
Dopamine Fluorescence (mpp^res CHO) ([9]; agent 500 μM): 0
inhibition of vesicular amine uptake/transport (fluorescence assay, in words) [9]: inhibited vesicular amine uptake
activity at 500 µM [10]: 17 ± 1%

CNCCCN1c2ccccc2CCc2ccccc21 [desipramine]
Ki ([9]; dose required to inhibit maximal uptake by 50%, estimated from fluorescence data, read-out: Ki (est)): 500 µM

NCCc1ccc(O)c(O)c1 [dopamine]
rank order for affinity of substrates [8]: serotonin>epinephrine>dopamine>norepinephrine

CNC[C@H](O)c1ccc(O)c(O)c1 [epinephrine]
rank order for affinity of substrates [8]: serotonin>epinephrine>dopamine>norepinephrine

NC[C@H](O)c1ccc(O)c(O)c1 [norepinephrine]
rank order for affinity of substrates [8]: serotonin>epinephrine>dopamine>norepinephrine

NCCc1c[nH]c2ccc(O)cc12 [serotonin]
rank order for affinity of substrates [8]: serotonin>epinephrine>dopamine>norepinephrine

COc1ccc(CCN(C)CCCC(C#N)(c2ccc(OC)c(OC)c2)C(C)C)cc1OC (stereo not drawn) [verapamil]
Ki [9]: 50 µM
Dopamine Fluorescence (mpp^res CHO) ([9]; agent 100 μM): 0
inhibition of vesicular amine uptake/transport (fluorescence assay, in words) [9]: inhibited transport, but at high concentrations
activity at 100 µM [10]: 21 ± 1%

Source: US5688936A, “Vesicle membrane transport proteins” (priority 1993, dated 1997)
